{
  "source": "patent US8476235B2",
  "about": "(Apotex Technologies Inc., priority 2006, dated 2013)",
  "key": {"[1]": {"assay": "speciation calculation using experimentally determined pKas (FIG. 8)", "format": "physicochemical", "conditions": "pH 2.7, concentration 0.5M", "text": "FIG. 8 illustrates the speciation calculation of the dipeptide H-D-iGlu-D-Trp-OH and its salt using experimentally determined pKas of the acid and amine groups. LH2 is the diacid form of the peptide H-D-iGlu-D-Trp-OH, LH is the mono carboxylic acid salt of H-D-iGlu-D-Trp-OH. An example of such is the mono ammonium salt. L refers to the diacid salt form and one such example is the disodium salt of the peptide H-D-iGlu-D-Trp-OH.\nThe pKas of the acid and amine groups of H-D-iGlu-D-Trp-OH are experimentally determined. In FIG. 8, LH2 is thymodepressin, LH is the monocarboxylic acid salt, L is the dicarboxylic acid salt, and LH3 is the acid addition salt of thymodepressin. The X axis provides the pH of the solution. The Y axis provides the % formation relative to L (the default terminology of the software) and reports the molar fraction of the species present at a particular pH. The concentration of 0.5M is used to reflect the equivalency of 1 gm of thymodepressin in 6 ml water during isolation purposes. […] For this reason, thymodepressin precipitates at pH 2.7 and can be filtered. The mother liquor can be concentrated to obtain a second crop of thymodepressin. The plot confirms the theoretical prediction that the diacid form of H-D-iGlu-D-Trp-OH predominates at pH of about 2.5 to about 3.0, which is the pH for the isolation of the diacid from water as a precipitate. […]"}, "pH of solution": {"assay": "pH of solution", "format": "physicochemical", "conditions": "in solution"}, "water solubility": {"assay": "water solubility", "format": "physicochemical", "conditions": "in water, organic solvent free"}, "[2]": {"conditions": "solid form, cited from earlier work"}, "[3]": {"conditions": "HPLC method B", "description": "In method B, the samples are analyzed with a normal reverse phase column, there is virtually no difference in the retention times of the samples."}},
  "note": "Where two headings read alike, the source gives them in different places.",
  "data": [
    {"molecule": "N[C@H](CCC(=O)N[C@H](Cc1c[nH]c2ccccc12)C(=O)O)C(=O)O", "note": "[thymodepressin, D-isoglutamyl-D-tryptophan]", "values": [
      {"measurement": "molar fraction present as dicarboxylic acid form (LH2)", "setting": "[1]", "value": "about 75%"},
      {"measurement": "pH of a solution", "setting": "pH of solution", "value": "about 3"},
      {"measurement": "water solubility", "setting": "water solubility; listed as H-D-iGlu-D-Trp-OH", "value": "< 23", "unit": "mg per mL"},
      {"measurement": "water solubility", "setting": "water solubility; listed as crystalline thymodepressin", "value": "about 20 mg per mL"},
      {"measurement": "solubility", "setting": "water solubility; water", "value": "~23", "unit": "mg/mL"}
    ]},
    {"molecule": "D-isoglutamyl-D-tryptophan disodium salt", "values": [
      {"measurement": "hygroscopicity (in words)", "setting": "[2]; listed as D-isoglutamyl-D-tryptophan disodium salt", "value": "hygroscopic"},
      {"measurement": "hygroscopicity (in words)", "setting": "[2]; disodium salt", "value": "extremely hygroscopic"}
    ]},
    {"molecule": "D-isoglutamyl-D-tryptophan, mono ammonium salt (1:1)", "values": [
      {"measurement": "purity at 254 nm after 2 years of storage", "setting": "[3]", "value": 99.8, "unit": "%"}
    ]}
  ]
}
